Like-named read-outs stand apart in the source and are kept apart here.
How the values were obtained:
[1] = system: nitric oxide (NO) release; assay: NO release from full fat milk with nitrite and NADH under hypoxia (Test 5); format: biochemical; conditions: inhibitor 100 μM; for inhibition of the increased NO release of milk gone off at 4° C.: milk kept at 4° C. more than 3 days
Description: (§1) The production of nitric oxide in the following tests and examples was analysed using an ozone chemiluminescence assay in a continuous flow apparatus (Sievers NOA 280) that allows the real time analysis of NO production. The apparatus was modified to allow a constant stream of nitrogen to flow into the reaction chamber. Chemiluminescence data were collected by a data acquisition system; the mean NO produced in parts per billion (ppb) was calculated from readings taken every second and shown as ppb or mV.
(§2) Progress curves, of molar production of NO against time, were calculated by taking into account the gas flow and the mean level of NO. Molar production of NO was expressed as ppb/sec or mV/sec. Reactions were carried out in a final volume of 1 ml at 37° C. in an atmosphere of <1% oxygen (Stathkelvin combination needle oxygen electrode, Diamond General Corp.).
(§3) To the “substrates” bijou, 200 μl of 100 mM stock sodium nitrite was added together with 200 μl of the 5 mM reduced NADH to give an assay concentration of 20 mM nitrite and 1 mM reduced NADH.
(§4) To the “milk” bijou were added 600 μl of milk sample to give an assay volume of 1 ml.
(f) At t=5 minutes, the contents of the “milk” bijou were injected into the reaction cell using a 1 ml syringe and the release of NO was monitored for a further 20 minutes. The set up was such that the reaction cell was a sealed system having an inlet gas flow of 200 ml/min and a sample extraction flow to the NOA-280 of 200 ml/min. The steady-state generation of NO (which corresponded to a plateau region on the trace of the NO production) was noted to give the mV/s release of NO from the 1 ml assay volume.
Full fat milk was assayed with 20 mM nitrite and 1 mM NADH as described above in Test 1. […] 600 μl of milk was used in each test giving a protein content in each assay of 20.4 mg.
The milk was taken and divided into two halves. One was kept at 4° C., and the other at −20° C. Samples of the milk were taken over several days and the generation of NO was investigated using the method described above.

[2] = molecular target: T1, bovine xanthine oxidase (XOR) (Bos taurus, UniProt P80457); assay: NO release by XOR with known XOR inhibitors (Test 4); format: biochemical; conditions: inhibitor 100 μM in the XOR/nitrite/NADH assay of Test 1
T1 construct: purchased Biozyme, Blaenavon, UK batch 104AX
Description: Bovine xanthine oxidase was diluted with PBS as indicated in Table 1 below to give 300 μl of enzyme mixture. The enzyme mixture (300 μl) was mixed with 700 μl of a substrate mixture to give an assay volume of 1 ml. The substrate mixture comprised nitrite which was added to the assay to give a concentration of 1 mM and NADH which was added to give a concentration of 0.3 mM. Where, for example in Tests 2 to 4 below, additional components are added to the sample, the amount of PBS is adjusted accordingly to give an assay volume of 1 ml. The sample was placed in the reaction vessel of the NO determination apparatus under a nitrogen atmosphere and the generation of NO was measured and the results calculated as a steady state rate in mV/s. […] Two different inhibitors were used. Oxypurinol was used at a concentration of 100 μM. Oxypurinol is a molybdenum site-specific inhibitor. Diphenyliodonium (DPI) was used at a concentration of 100 μM. DPI is a FAD site inhibitor.

[3] = system: nitric oxide (NO) release; assay: NO release from formula feeds with nitrite and NADH (Test 7); format: biochemical; conditions: inhibitor 100 μM
Description: as §1, §2, §3, §4
(f) At t=5 minutes, the contents of the “milk” bijou were injected into the reaction cell using a 1 ml syringe and the release of NO was monitored for a further 20 minutes. […]

[4] = system: Lactobacillus casei 6375; assay: Bacterial growth rate by optical density, 96 well plate (Tests 8(f), 8(g)); format: cell-based
Description: (§5) Bacteria were seeded into nutrient broth (NB) and grown over night at 37° C. The culture was then counted and normalised to give a final cell concentration of 1.8×10^7 cells well^−1 into the wells of a 96 well plate in fresh nutrient broth. The optical density of each well was monitored every 15 minutes as a measure of the growth rate of each bacterial species. Growth curves were generated for each species and the maximal rate of growth (logarithmic phase) was measured. Cells were treated to a range of experimental conditions in which the growth rate of cells was related to a control of untreated cells. The results were expressed as a percentage of the growth rate of the control cells.
(§6) (i) At a fixed concentration of hypoxanthine (100 μM) a range of purified XO protein concentrations were added at time 0 minutes. The optical density was followed and the growth rate calculated.
(§7) (ii) The growth rate was also measured in relation to the concentration of hypoxanthine, using 30 μg of XO with cells seeded as described above.
(§8) (iv) The effect of XO hypoxanthine addition was measured on the growth rate of a range of bacterial species with 30 […] XO at varying hypoxanthine concentrations using cells seeded as described above.

[5] = system: Staphylococcus aureus 6751; assay: as above; format: cell-based
Description: as §5, §6, §7, §8

[6] = system: Micrococcus sp; conditions: read-out: Half maximal concentration H2O2, bolus at beginning of logarithmic growth
Description: as §5, §8

[7] = system: Bacillus sp; conditions: read-out: Half maximal concentration H2O2, bolus at beginning of logarithmic growth
Description: as §5, §8

[8] = system: superoxide; assay: Measurable NO in the XO/hypoxanthine system with superoxide dismutase; format: biochemical; conditions: added to the Xo/hypoxanthine system; oxygen 0 to 2%
[9] = system: Staphylococcus aureus; assay: Incubation of Staphylococcus aureus with SIN-1, growth; format: cell-based; conditions: in dependence on the amount added
Description: Cells cultured as described above were diluted to suitable working concentrations (10^4-10^5 Cells Ml^−1) in sterile phosphate buffered saline (PBS). […] Aliquots were taken from the cell cultures and plated on to nutrient agar and incubated in a warm room at 37° C. overnight. Viable cells formed colonies on the agar and were counted. The number of colonies formed was related to an untreated control and a graph of the results is shown in FIG. 1, which illustrates the effect of ONOO^− on cell viability.

[10] = system: bacteria in pasteurised semi skimmed milk; conditions: 100 μM in pasteurised semi skimmed milk, 4-8° C., 8 days
Description: Pasteurised semi skimmed milk 1 ml was aliquoted into 7 sterile plastic bijou bottles comprising control and treated hypoxanthine (Hxan) groups. […] The samples were stored refrigerated at 4-8° C. until required on a specific day when a control and treated sample was incubated at 37° C. for 30 minutes. A 100 μl aliquot was taken from each sample and spread onto nutrient agar which was then incubated over night at 37° C. The total number of colonies formed regardless of type was counted and expressed for each treatment as the colony forming units per ml of the original test sample (CFU ml^−1).

T1 sequence (P80457 whole entry): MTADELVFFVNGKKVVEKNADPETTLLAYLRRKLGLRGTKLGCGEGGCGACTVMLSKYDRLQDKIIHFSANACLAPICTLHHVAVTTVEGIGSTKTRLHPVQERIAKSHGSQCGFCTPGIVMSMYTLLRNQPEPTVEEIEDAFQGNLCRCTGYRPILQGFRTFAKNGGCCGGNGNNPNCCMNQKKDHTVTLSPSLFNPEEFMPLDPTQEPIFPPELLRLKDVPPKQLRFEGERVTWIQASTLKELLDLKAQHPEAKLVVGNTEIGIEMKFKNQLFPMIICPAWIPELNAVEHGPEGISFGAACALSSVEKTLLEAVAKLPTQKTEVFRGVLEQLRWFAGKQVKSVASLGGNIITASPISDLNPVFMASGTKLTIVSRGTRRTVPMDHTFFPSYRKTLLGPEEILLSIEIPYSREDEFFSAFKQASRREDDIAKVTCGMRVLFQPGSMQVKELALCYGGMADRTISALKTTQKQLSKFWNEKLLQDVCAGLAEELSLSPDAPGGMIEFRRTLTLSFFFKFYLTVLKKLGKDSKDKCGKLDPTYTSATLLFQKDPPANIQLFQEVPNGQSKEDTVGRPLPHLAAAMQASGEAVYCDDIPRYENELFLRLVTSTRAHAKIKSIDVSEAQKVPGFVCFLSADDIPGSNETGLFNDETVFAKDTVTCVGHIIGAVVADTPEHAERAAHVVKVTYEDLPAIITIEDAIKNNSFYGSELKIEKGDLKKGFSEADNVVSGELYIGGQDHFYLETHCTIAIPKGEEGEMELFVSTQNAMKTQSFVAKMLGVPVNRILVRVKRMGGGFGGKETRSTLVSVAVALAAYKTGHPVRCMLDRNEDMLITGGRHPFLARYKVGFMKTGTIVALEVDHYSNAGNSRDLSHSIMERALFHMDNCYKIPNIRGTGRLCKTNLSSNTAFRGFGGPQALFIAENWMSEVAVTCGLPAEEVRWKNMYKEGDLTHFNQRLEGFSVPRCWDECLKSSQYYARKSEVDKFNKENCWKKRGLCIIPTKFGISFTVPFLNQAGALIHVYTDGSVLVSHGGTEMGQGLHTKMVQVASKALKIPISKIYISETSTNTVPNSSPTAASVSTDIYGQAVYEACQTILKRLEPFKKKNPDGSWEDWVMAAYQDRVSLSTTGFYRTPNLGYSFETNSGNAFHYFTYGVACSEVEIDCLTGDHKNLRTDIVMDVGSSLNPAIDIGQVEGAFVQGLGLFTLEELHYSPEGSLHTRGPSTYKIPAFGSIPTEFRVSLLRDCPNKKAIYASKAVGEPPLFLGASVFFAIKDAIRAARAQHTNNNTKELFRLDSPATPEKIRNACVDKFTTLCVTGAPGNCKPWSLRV

## O=c1[nH]c(=O)c2c[nH]nc2[nH]1 [Oxypurinol]
[1]
  NO generation of fresh full fat milk with inhibitor: no detectable NO generation
  inhibition of the increased NO release of milk gone off at 4° C.: not inhibited
[2]
  NO release: 0.00 mV/s
[3]
  inhibition of NO release of 7 days old Cow and Gate formula: not inhibited
[4]; 30 μg XO and 200 μM hypoxanthine, range of concentrations
  effect on XO/hypoxanthine growth inhibition: reduce the effect of XO/hypoxanthine growth inhibition in a dose dependent manner
[4]; highest concentration, alone
  growth rate of Lactobacillus, added alone: no effect

## c1ccc([I+]c2ccccc2)cc1 [DPI, Diphenyliodonium]
[1]
  NO generation of fresh full fat milk with inhibitor: no detectable NO generation
  inhibition of the increased NO release of milk gone off at 4° C.: not inhibited
[2]
  NO release: 0.00 mV/s
[3]
  inhibition of NO release of 7 days old Cow and Gate formula: not inhibited

## OO [H2O2, hydrogen peroxide]
[4]; read-out: Half maximal concentration H2O2, Lactobacillus casei, bolus at beginning of logarithmic growth
  IC50: 305 µM
[5]; S. aureus, 50% growth reduction not observed at the concentration ranges used
  growth inhibition: very limited
[6]
  IC50: 19.5 µM
[7]
  IC50: 77.6 µM

## superoxide dismutase
[8]
  amount of measurable NO: increase the amount of measurable NO

## N=c1c[n+](N2CCOCC2)[n-]o1 [SIN-1, 3-morpholinosydnonimine]
[9]
  growth of Staphylococcus aureus: reduced growth

## O=c1[nH]cnc2nc[nH]c12 [Hypoxanthine, hypoxanthine]
[4]; Lacticaseibacillus casei, 6375, Lactobacillus, at 30 μg XO, read-out: half maximal hypoxanthine dose
  IC50: 104 µM
[5]; Staphylococcus, in the presence of 30 μg XO
  growth rate: reduced the growth rate
[10]
  total number of colonies formed (CFU ml^−1): reduce the total number of colonies formed

Reference: patent US20040120938A1, “Ingestible compositions comprising antibacterial agents” (The University of Bath, priority 1998, published 2004)
